The values below come from paper PMC6454048, “Identification of Cbp1, a c-di-GMP Binding Chemoreceptor in Azorhizobium caulinodans ORS571 Involved in Chemotaxis and Nodulation of the Host Plant” (Frontiers in Microbiology, 2019).

The structures appear in SMILES notation.

This assay deals with T1, Cbp1 (c-di-GMP binding protein 1; PilZ domain containing chemoreceptor) (Azorhizobium caulinodans, UniProt A8II15).
T1 construct: gene AZC_3349; Cbp1 ORF with C-terminal 6×His tag, expressed in E. coli Top10
T1 sequence (A8II15 1-581): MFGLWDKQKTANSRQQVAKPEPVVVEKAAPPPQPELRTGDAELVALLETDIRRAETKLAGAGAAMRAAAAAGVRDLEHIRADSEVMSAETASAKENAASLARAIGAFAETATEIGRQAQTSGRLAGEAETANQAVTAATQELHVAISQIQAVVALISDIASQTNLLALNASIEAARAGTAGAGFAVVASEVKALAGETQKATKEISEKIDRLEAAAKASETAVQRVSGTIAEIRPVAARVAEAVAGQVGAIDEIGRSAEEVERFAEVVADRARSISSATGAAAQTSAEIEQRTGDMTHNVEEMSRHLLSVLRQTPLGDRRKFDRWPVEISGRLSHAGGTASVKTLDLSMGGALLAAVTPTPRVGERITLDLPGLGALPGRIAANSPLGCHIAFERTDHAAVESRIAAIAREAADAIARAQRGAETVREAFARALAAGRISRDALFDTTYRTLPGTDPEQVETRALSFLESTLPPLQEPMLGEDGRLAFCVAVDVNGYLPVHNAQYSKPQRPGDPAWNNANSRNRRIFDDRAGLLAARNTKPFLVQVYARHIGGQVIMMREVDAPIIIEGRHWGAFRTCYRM
As to the kind of experiment: ITC ([…] protein titrated with […] c-di-GMP); also protein thermal shift assay.

The term Kd denotes the constant that tells how readily two partners part at equilibrium.

With `Nc1nc2c(ncn2[C@@H]2O[C@@H]3CO[P@](=O)(O)O[C@H]4[C@@H](O)[C@H](n5cnc6c(=O)[nH]c(N)nc65)O[C@@H]4CO[P@](=O)(O)O[C@H]3[C@H]2O)c(=O)[nH]1` [c-di-GMP], the Kd amounted to 14.9 ± 1.6 µM.
